Results published in US3982931A, “N,N-di-sec.butyl-benzamide herbicides” (priority 1967, dated 1976).

Legend:
[1] = tested on: avena sativa (oats); test: activity on agrarian species, soil treatment one day after sowing; assay type: in vivo, Avena sativa L.; conditions: in vivo
Description: (§1) The infesting species and the agrarian species have been indicated in Table 1 by letters, as follows:
(§2) Method of evaluation of the results (of tests):
(§3) 0 = no activity and no difference with respect to the control;
(§4) 1 slight differences with respect to the control;
(§5) 3 = considerable activity with damages that definitely impair the further development of most of the small plants; an activity degree already useful for practical purposes;
(§6) 4 = maximum of activity with lack of germination or total containment of the small plants in the emerging stage.
(§7) In the case of an intermediate activity between two classes of the scale, both values are recorded with the one which corresponds to the preeminent activity preceding.
(§8) TABLE 2 reports the activity data of other compounds that fall within the class which is the object of this invention.
(§9) TABLE 3 reports data on the herbicidal activity against infesting herbs, while TABLE 4 reports data concerning the activity on useful species of agricultural cultivations. These tables employ the criterion explained previously. The product was spread on the soil one day after sowing, in quantities of 1, 3, 6, 8, 10, 12 and 14 kg/ha.

[2] = tested on: artemisia vulgaris L.; test: herbicidal activity, soil treatment one day after sowing; assay type: in vivo
Description: as §1
B = artemisia vulgaris L.
as §2, §4, §5, §6, §7, §8
(§10) TABLE 3 reports data on the herbicidal activity against infesting herbs, while TABLE 4 reports data concerning the activity on useful species of agricultural cultivations. These tables employ the criterion explained previously. […]

[3] = tested on: amaranthus retroflexus L.; test: as above; assay type: in vivo
Description: as §1
A = amaranthus retroflexus L.
as §2, §4, §5, §6, §7, §8, §10

[4] = tested on: oryza sativa L. (rice); test: activity on agrarian species, soil treatment one day after sowing; assay type: in vivo; conditions: in vivo
Description: as §1
P = oryza sativa L. (rice)
as §2, §3, §4, §5, §6, §7, §8, §9

[5] = tested on: vicia sativa L.; test: herbicidal activity, soil treatment one day after sowing; assay type: in vivo
Description: as §1, §2, §4, §5, §6, §7, §8

[6] = tested on: chenopodium album L.; test: as above; assay type: in vivo
Description: as §1, §2, §4, §5, §6, §7, §8, §10

[7] = tested on: phaseolus vulgaris (bean); test: activity on agrarian species, soil treatment one day after sowing; assay type: in vivo, Phaseolus vulgaris L.; conditions: in vivo
Description: as §1
I = phaseolus vulgaris (bean)
as §2, §3, §4, §5, §6, §7, §8, §9

[8] = tested on: setaria glauca L.; test: herbicidal activity, soil treatment one day after sowing; assay type: in vivo
Description: as §1, §2, §4, §5, §6
In the case of an intermediate activity between two classes of the scale, both values are recorded with the one which corresponds to the preeminent activity preceding. […]
as §10

[9] = tested on: pisum sativum L. (pea); test: activity on agrarian species, soil treatment one day after sowing; assay type: in vivo; conditions: in vivo
Description: as §1
L = pisum sativum L. (pea)
as §2, §3, §4, §5, §6, §7, §8, §10

[10] = tested on: echinocloa crus-galli R.S.; test: herbicidal activity, soil treatment one day after sowing; assay type: in vivo
Description: as §1
D = echinocloa crus-galli R.S.
as §2, §4, §5, §6, §7, §8, §10

[11] = tested on: zea mais L. (corn); test: activity on agrarian species, soil treatment one day after sowing; assay type: in vivo; conditions: in vivo
Description: as §1, §2, §3, §4, §5, §6, §7, §8, §9

[12] = tested on: triticum vulgare L. (wheat); test: as above; assay type: in vivo; conditions: in vivo
Description: as §1
N = triticum vulgare L. (wheat)
as §2, §3, §4, §5, §6, §7, §8, §9

SMILES	activity on G, 0-4 scale [1]	activity on B, 0-4 scale ([2]; 2 kg/ha)	activity on B, 0-4 scale ([2]; 4 kg/ha)	activity on A, 0-4 scale ([3]; 6 kg/ha)	activity on P, 0-4 scale [4]	activity on F, 0-4 scale ([5]; 2 kg/ha)	activity on F, 0-4 scale ([5]; 4 kg/ha)	activity on F, 0-4 scale ([5]; 6 kg/ha)	activity on C, 0-4 scale ([6]; 2 kg/ha)	activity on C, 0-4 scale ([6]; 4 kg/ha)	activity on I, 0-4 scale [7]	activity on E, 0-4 scale ([8]; 4 kg/ha)	activity on E, 0-4 scale ([8]; 6 kg/ha)	activity on L, 0-4 scale [9]	activity on D, 0-4 scale ([10]; 4 kg/ha)	activity on D, 0-4 scale ([10]; 6 kg/ha)	activity on O, 0-4 scale [11]	activity on B, 0-4 scale ([2]; 6 kg/ha)	activity on N, 0-4 scale [12]	activity on C, 0-4 scale ([6]; 6 kg/ha)	other results
CCC(C)N(C(=O)c1ccc(Cl)cc1Cl)C(C)CC (stereo not drawn) [PA214, 2,4-dichloro-N,N-di-sec.butyl-benzamide]	0	1	2	3-4	0	0	0	0	1	1-2	0	3-4	4	0	3-4	4	0				activity on A, 0-4 scale ([3]; 2 kg/ha): 1; activity on A, 0-4 scale ([3]; 4 kg/ha): 2-3; activity on E, 0-4 scale ([8]; 2 kg/ha): 3
CCC(C)N(C(=O)c1ccc(Br)c(C)c1)C(C)CC (stereo not drawn) [PA481, 3-methyl,4-bromo-N,N-di-sec.butyl-benzamide]	0				0			0-1			0		3-4	0			0	3	0	2-3	
CCC(C)N(C(=O)c1cc(Cl)c(Cl)cc1Cl)C(C)CC (stereo not drawn) [PA338, 2,4,5-trichloro-N,N-di-sec.butyl-benzamide]	0			2	0			0-1			0	3	3-4	0	3	3-4	0	1-2	0	2	activity on E, 0-4 scale ([8]; 2 kg/ha): 2-3; activity on D, 0-4 scale ([10]; 2 kg/ha): 2-3
CCN(CC)C(=O)c1cccc(Cl)c1 [PA321, 3,chloro-N,N-diethyl-benzamide, reference compound]	1			1-2	2			1			1-0		1	2		1	0-1	2	2-3	1-2	
NC(=O)c1ccccc1Cl [C, 2,chloro-benzamide, reference compound]				2	0-1			2-3					0			0-1		1	0-1	2	
CCC(C)N(C(=O)c1ccccc1Cl)C(C)CC (stereo not drawn) [PA215 2,chloro-N,N-disec.butyl-benzamide, 2-chloro-N,N-di-sec.butyl-benzamide]	0			2	0			0			0		3	0		2-3	0	1		0-1	
CCC(C)N(C(=O)c1cccc(Cl)c1Cl)C(C)CC (stereo not drawn) [PA336, 2,3-dichloro-N,N-di-sec.butyl-benzamide]	0	1	2	4	0	0	0	0	2	3	0	4	4	0	4	4	0	3			activity on A, 0-4 scale ([3]; 2 kg/ha): 2-3; activity on D, 0-4 scale ([10]; 2 kg/ha): 3-4
CCC(C)N(C(=O)c1cccc(C)c1)C(C)CC (stereo not drawn) [PA226, 3-methyl-N,N-di-sec.butyl-benzamide]	0	1	1-2	2	0	0	0	0	0-1	1	0	3-4	4	0	3	4	0	1-2		1-2	activity on A, 0-4 scale ([3]; 4 kg/ha): 1-2; activity on E, 0-4 scale ([8]; 2 kg/ha): 2; activity on D, 0-4 scale ([10]; 2 kg/ha): 2-3
CCC(C)N(C(=O)c1ccc(Cl)c(Cl)c1Cl)C(C)CC (stereo not drawn) [PA488, 2,3,4-trichloro-N,N-di-sec.butyl-benzamide]	0	0	0-1	3-4	0	0	0	0	1-2	3	0	4	4	0	4	4			0	3	activity on A, 0-4 scale ([3]; 2 kg/ha): 0; activity on A, 0-4 scale ([3]; 4 kg/ha): 1; activity on D, 0-4 scale ([10]; 1 kg/ha): 2; activity on D, 0-4 scale ([10]; 2 kg/ha): 3-4
